Columns and labels:
damaged membranes = assay: Propidium iodide membrane integrity staining; format: cell-based; conditions: compared with YO-PRO-1
From the text: Propidium iodide (PI; Sigma) is another red fluorescent DNA-intercalcater that penetrates damaged membranes but not intact membranes.

[1] = tested on: Staphylococcus aureus (STAU); assay: MADM resistance phenotype test, respiratory specimens; format: cell-based
Method: (§1) (ABCC). Concurrent quantitative culture (qCx) was performed on specimens.
(§2) 20 μL samples of prepared specimen were pipetted into independent flowcell channels and a low-voltage electrical field was applied for 5 minutes. The electrical field concentrated bacteria onto a functional surface coating that immobilized the bacteria on the lower flowcell surface. Each flowcell channel received only one type of test reagent solution that contained a selective agent if required (only for channels used to test AB, sulbactam 32 μg/mL).
(§3) The instrument acquired images at 10-minutes intervals for 180 minutes, using 10 fields of view in each flowcell channel through a 20× objective. Imaging used darkfield illumination. Identification variables included response to selective agents (AB with sulbactam), cell morphology, growth morphology, and growth rate.
(§4) Identification algorithms applied to each individual immobilized bacterial cell. The system measured the amount of change in mass over time to compute growth rates. Identification consisted of computing and combining probability scores for morphology, response to selective media, and growth rates to produce a receiver operating characteristic curve (ROC) to derive classification criteria.

[2] = tested on: Staphylococcus aureus (STAU); assay: Culture (Cx) susceptibility result, respiratory specimens; format: cell-based; also: key: S: susceptible; R: resistant
Method: (§5) DHMC specimens were 7-21 days old. […] Controls used standard culturing methods (Cx).
as §1

[3] = tested on: Pseudomonas aeruginosa (PSAE); assay: MADM resistance phenotype test, respiratory specimens; format: cell-based; conditions: for MADM resistance phenotype: PSAE
Method: as §1, §2, §3, §4

[4] = tested on: Acinetobacter spp. (ABCC); assay: as above; format: cell-based, Acinetobacter sp.; conditions: for MADM resistance phenotype: ABCC specimen (specimen id not given)
[5] = tested on: Pseudomonas aeruginosa (PSAE); assay: Culture (Cx) susceptibility result, respiratory specimens; format: cell-based
Method: as §5, §1

[6] = tested on: Acinetobacter spp. (ABCC); assay: as above; format: cell-based, Acinetobacter sp.; conditions: ABCC specimen (specimen id not given)
Method: as §5, §1

E. coli [7] = assay: Plasmolysis (cell size response to osmotic pressure); format: cell-based; conditions: exposed to 0.9% NaCl
From the text: Plasmolysis is a method of detecting membrane integrity by exposing cells to a very hypertonic solution, such as may be performed by subjecting a cell to osmotic pressure by manipulating the concentration of a solute, for example, sodium chloride.

Enteric = assay: MADM (BACcel) growth analysis sensitivity, surveillance mini-BAL; format: cell-based; conditions: specimen 005-D7, BACcel ID Enteric, 1.26 × 10^5 CFU/ml
Method: (§6) Adult MICU patients with identified surrogate were included within 72 hours of intubation and if anticipated to require MV for >48 h. Moribund state or pregnancy were exclusions. Surveillance mini-BAL (Combicath, Plastimed) was performed on Day 1, 3, 5, 7 and 10 of MV. Samples were split and processed for both a) routine respiratory quantitative microbiological culture and sensitivity assays (>48 h result availability) and b) rapid (<8 h) flowcell/surface-capture assays using the MADM system. Viable microorganisms were identified using growth analysis enhanced by a focused VAP antibody panel (S. aureus, P. aeruginosa, A. baumannii). Untypable organisms were also reported. Sensitivity was assessed using growth analysis. Attending physicians were blinded to MADM system results.
(§7) BAL sample were prepared, removing debris and separating microorganisms from other sample material. Sample microorganisms were introduced into a multichannel fluidic cassette as described elsewhere herein. Bacteria were concentrated and retained on the lower surface of all flowcells using low-voltage electrical field (5 min). Antibody labeling of bacteria in flowcells was used to aid identification.
(§8) The automated digital microscopy system was used to perform darkfield imaging of 10 fields of view every 10 minutes for 180 minutes in each flowcell channel. Initial epifluorescence imaging was also performed for antibody detection. […] Identification consisted of probability scores based on microorganism morphology and growth rates. Antibody labeling identification data was also incorporated. Observed microorganisms were then classified as STAU, PSAE, or non-target. Antibiotic responses were used to aid identification when appropriate. Quantitation was performed by counting identified microorganism and computing original specimen CFU/mL.

S. maltophilia (Steno) = assay: as above; format: cell-based
Method: as §6, §7, §8

[8] = tested on: Klebsiella pneumoniae (KP); assay: MADM ertapenem nonsusceptibility / KPC assay; format: cell-based
Method: We adapted a commercial inverted microscope and camera with custom image analysis software and a purpose-built 32-channel disposable fluidic cassette (FIG. 4A). Cassette flowcells (FIG. 4B) had transparent top and bottom surfaces to allow microscope imaging. The bottom surface was coated with poly-L-lysine to immobilize live bacteria.
We grew isolates on blood agar, suspended colonies in tryptic soy broth for 2 hours, then centrifuged and resuspended log-phase bacteria in low ionic strength electrokinetic buffer.
MADM system analysis was performed using a 32-channel disposable fluidic cassette (FIG. 4A) to measure growth of immobilized bacteria. We separately tested PA clinical isolates for nonsusceptibility (NS) with amikacin (AN) at 32 μg/mL, and AB isolates with imipenem (IMP) at 8 μg/mL or ceftazidime (CAZ) at 8 μg/mL.
10 μL aliquots of 5E+7 CFU/mL were pipetted into separate flowcells for each isolate and test condition. Microorganisms were electrokinetically concentrated onto the flowcell detection surface with an electrical field to the positively charged lower surface to immobilize cells and yield 10-100 bacteria per field of view (FIG. 4B). […] The system measured growth at 10-minute intervals. […] Growth was evaluated, interpreting results for PA, AB, and KP-ETP as NS if growth had not arrested within 3 hours. […]

[9] = tested on: heat-killed cells and isopropyl alcohol killed cells; assay: CFDA/CFDA-SE esterase fluorescence in killed cells; format: cell-based; conditions: two hour post-heat-kill delay
From the text: Carboxyfluorescein diacetate/carboxyfluorescein diacetate succinimidyl ester (CFDA/CFDA-SE; Molecular Probes) compounds are converted into amine-reactive fluorescent molecules when cleaved by esterases present within active cells. When CFDA-SE is taken up by live cells, the fluorescent molecule produced by esterase cleavage and amine reaction is retained inside the cell. […] The product formed by uptake and processing of CFDA, on the other hand, should be more “leaky” over time and may exit a dead cell. […] Shorter delay times have not yet been investigated but may be compatible with avoiding false positive results while providing a shorter assay period.

E. coli [10] = assay: 2-NBDG uptake fluorescence labeling; format: cell-based; conditions: overnight refrigerator stock, approximately 1 min, 1 μM 2-NBDG
From the text: (§9) 2-NBDG (Molecular Probes) is a fluorescent derivative (green channel) of D-glucose that is internalized by active bacteria.

H. influenzae = assay: 2-NBDG uptake fluorescence labeling; format: cell-based; conditions: overnight refrigerator culture, viability verified
From the text: as §9

K. pneumoniae = assay: 2-NBDG uptake fluorescence labeling; format: cell-based; conditions: overnight refrigerator stock, approximately 1 min, 1 μM 2-NBDG
From the text: as §9

S. aureus = assay: 2-NBDG uptake fluorescence labeling; format: cell-based; conditions: overnight refrigerator culture, viability verified
From the text: as §9

E. coli [11] = assay: DiBAC4(3) membrane potential staining; format: cell-based; conditions: heat-killed E. coli, 10 g/ml DiBAC4(3), 15 min at room temp
Method: DiBAC4(3) (Molecular Probes) is an anionic dye that enters depolarized cells (i.e., cells lacking a membrane potential) and fluoresces in the […] channel when it binds to intracellular proteins or membranes. Using this indicator, 18.5% of an overnight refrigerator stock (control) and 95% of heat-killed E. coli stained with 10 µg/ml DiBAC4(3) after a 15 min incubation period at room temp.

[12] = specimen 006-D1, BACcel ID Steno, 7.68 × 10^5 CFU/ml
[13] = specimen 006-D3, BACcel ID Steno, 1.60 × 10^4 CFU/ml

CC[N+](C)(CC)CCC[n+]1c(-c2ccccc2)c2cc(N)ccc2c2ccc(N)cc21.[I-].[I-] [PI, Propidium iodide]
fluorescent signal intensity vs. background (damaged membranes): not as high as for YO-PRO-1

CCC[C@@H]1C[C@@H](C(=O)N[C@@H]([C@H]2O[C@H](SC)[C@H](O)[C@@H](O)[C@H]2O)[C@H](C)Cl)N(C)C1 [CLI, clindamycin]
MADM resistance phenotype ([1]; specimen DH 425, Mini-BAL): S
MADM resistance phenotype ([1]; specimen DH 427, Mini-BAL): S
MADM resistance phenotype ([1]; specimen DH 439, Mini-BAL): S
MADM resistance phenotype ([1]; specimen DH 440, BAL): S
MADM resistance phenotype ([1]; specimen DH 457, BAL): S
MADM resistance phenotype ([1]; specimen DH 485, BAL): S
MADM resistance phenotype ([1]; specimen DH 509, BAL): S
MADM resistance phenotype ([1]; specimen DH 514, Mini-BAL): S
MADM resistance phenotype ([1]; specimen DH 543, BAL): S
MADM resistance phenotype ([1]; specimen DH 550, BAL): S
MADM resistance phenotype ([1]; specimen DH 556, Mini-BAL): S
MADM resistance phenotype ([1]; specimen T12, ETA): S
Cx (culture result) susceptibility ([2]; specimen DH 425, Mini-BAL): S
Cx (culture result) susceptibility ([2]; specimen DH 427, Mini-BAL): S
Cx (culture result) susceptibility ([2]; specimen DH 439, Mini-BAL): S
Cx (culture result) susceptibility ([2]; specimen DH 440, BAL): S
Cx (culture result) susceptibility ([2]; specimen DH 457, BAL): S
Cx (culture result) susceptibility ([2]; specimen DH 485, BAL): S
Cx (culture result) susceptibility ([2]; specimen DH 509, BAL): S
Cx (culture result) susceptibility ([2]; specimen DH 514, Mini-BAL): S
Cx (culture result) susceptibility ([2]; specimen DH 543, BAL): S
Cx (culture result) susceptibility ([2]; specimen DH 550, BAL): S
Cx (culture result) susceptibility ([2]; specimen DH 556, Mini-BAL): S
Cx (culture result) susceptibility ([2]; specimen T12, ETA): S

C[C@@H](O)[C@H]1C(=O)N2C(C(=O)O)=C(SCCN=CN)C[C@H]12 [IMP, imipenem]
MADM resistance phenotype ([3]; specimen DH 430, Mini-BAL): S
MADM resistance phenotype ([3]; specimen DH 554, BAL): S
MADM resistance phenotype ([3]; specimen DH 641, Mini-BAL): S
MADM resistance phenotype [4]: S
Cx (culture result) susceptibility ([5]; specimen DH 430, Mini-BAL): S
Cx (culture result) susceptibility ([5]; specimen DH 554, BAL): S
Cx (culture result) susceptibility ([5]; specimen DH 641, Mini-BAL): S
Cx (culture result) susceptibility [6]: S

Cc1onc(-c2ccccc2)c1C(=O)N[C@@H]1C(=O)N2[C@@H]1SC(C)(C)[C@@H]2C(=O)O [OXA, oxacillin]
Cx (culture result) susceptibility ([2]; specimen DH 425, Mini-BAL): S
Cx (culture result) susceptibility ([2]; specimen DH 427, Mini-BAL): S
Cx (culture result) susceptibility ([2]; specimen DH 439, Mini-BAL): R
Cx (culture result) susceptibility ([2]; specimen DH 440, BAL): S
Cx (culture result) susceptibility ([2]; specimen DH 457, BAL): S
Cx (culture result) susceptibility ([2]; specimen DH 485, BAL): S
Cx (culture result) susceptibility ([2]; specimen DH 509, BAL): S
Cx (culture result) susceptibility ([2]; specimen DH 514, Mini-BAL): S
Cx (culture result) susceptibility ([2]; specimen DH 543, BAL): S
Cx (culture result) susceptibility ([2]; specimen DH 550, BAL): S
Cx (culture result) susceptibility ([2]; specimen DH 556, Mini-BAL): S
Cx (culture result) susceptibility ([2]; specimen T12, ETA): R

[Cl-].[Na+] [NaCl, sodium chloride]
cells that did not exhibit a response (E. coli [7]; heat killed cells): 90%
cells decreasing in size (E. coli [7]; overnight refrigerator stock cultures): 77%

CC(C)(O/N=C(\C(=O)N[C@@H]1C(=O)N2C(C(=O)[O-])=C(C[n+]3ccccc3)CS[C@H]12)c1csc(N)n1)C(=O)O [CAZ, ceftazidime]
Phenotype, sensitivity (Enteric): all growth
Phenotype, sensitivity (S. maltophilia (Steno); [12]): growth, TZP-
Phenotype, sensitivity (S. maltophilia (Steno); [13]): growth, TZP-

C[C@@H](O)[C@H]1C(=O)N2C(C(=O)O)=C(S[C@@H]3CN[C@H](C(=O)Nc4cccc(C(=O)O)c4)C3)[C@H](C)[C@H]12 [ETP, ertapenem]
growth of susceptible strains ([8]; ETP at 16 μg/mL, FIG. 20): fail to grow
growth morphology ([8]; ETP exposure, KPC clinical isolate, FIG. 19): abnormal growth morphology

carboxyfluorescein diacetate succinimidyl ester [CFDA-SE]
fluorescence [9]: no fluorescence was observed

NCC[C@H](O)C(=O)N[C@@H]1C[C@H](N)[C@@H](O[C@H]2O[C@H](CN)[C@@H](O)[C@H](O)[C@H]2O)[C@H](O)[C@H]1O[C@H]1O[C@H](CO)[C@@H](O)[C@H](N)[C@H]1O [AN, amikacin]
susceptibility ([3]; all PSAE-containing specimens): susceptible
MADM resistance phenotype ([3]; specimen DH 430, Mini-BAL): S
MADM resistance phenotype ([3]; specimen DH 554, BAL): S
MADM resistance phenotype ([3]; specimen DH 641, Mini-BAL): S
MADM resistance phenotype [4]: S
susceptibility ([4]; all ABCC-containing specimens): susceptible
Cx (culture result) susceptibility ([5]; specimen DH 430, Mini-BAL): S
Cx (culture result) susceptibility ([5]; specimen DH 554, BAL): S
Cx (culture result) susceptibility ([5]; specimen DH 641, Mini-BAL): S
Phenotype, sensitivity (S. maltophilia (Steno); [12]): growth, TZP-
Phenotype, sensitivity (S. maltophilia (Steno); [13]): growth, TZP-

O=[N+]([O-])c1ccc(N[C@H]2C(O)O[C@H](CO)[C@@H](O)[C@@H]2O)c2nonc12 (stereo partly drawn) [2-NBDG]
fluorescent labeling (E. coli [10]): fluorescently labeled
fluorescent labeling (H. influenzae): did not fluoresce
fluorescent labeling (K. pneumoniae): fluorescently labeled
fluorescent labeling (S. aureus): did not fluoresce

CCCCN1C(=O)C(=CC=Cc2c(O)n(CCCC)c(=O)n(CCCC)c2=O)C(=O)N(CCCC)C1=O [DiBAC4(3)]
cells stained (E. coli [11]): 95%

Reference: patent publication US9677109B2, “Rapid determination of microbial growth and antimicrobial susceptibility” (priority 2013, dated 2017)
